Data on 30 molecules can be found in ChEMBL document CHEMBL1201862, “PubChem BioAssay data set” (2004).

Assay [1] is described as follows: luciferase reporter signal suppression in cells – H4 neuroglioma cells, luminescence, dose response (AID 1990). It counts as functional, cell-based. Background: A reporter such as luciferase makes a cellular process visible.
A short description of assay [2]: Luminescence Cell-Based Dose Response HTS to Identify Inhibitors of 5'UTR Stem-Loop Driven Prion Protein mRNA Translation in H4 Neuroglioblastoma Cells. [Related pubchem assays: 1827 (Project Summary), 1813 (Primary HTS)]. The format is functional.
A short description of assay [3]: alpha-synuclein stem-loop luciferase translation blockers – H4 neuroglioma cells, luminescence, confirmation (AID 1988). It counts as functional, cell-based.
The target of assay [4] is T1, Polyadenylate-binding protein 1 (Homo sapiens, UniProt P11940). Briefly: MLLE binding blockers, Cy5 peptide tracer – biochemical, fluorescence polarization, Cy5-PAM2 peptide, secondary, miRNA deadenylation inhibitor project, dose response (AID 602260). As to conditions: read-out: IC50_Mean. The format is functional.
T1 sequence (P11940 whole entry, the tested form may be a part): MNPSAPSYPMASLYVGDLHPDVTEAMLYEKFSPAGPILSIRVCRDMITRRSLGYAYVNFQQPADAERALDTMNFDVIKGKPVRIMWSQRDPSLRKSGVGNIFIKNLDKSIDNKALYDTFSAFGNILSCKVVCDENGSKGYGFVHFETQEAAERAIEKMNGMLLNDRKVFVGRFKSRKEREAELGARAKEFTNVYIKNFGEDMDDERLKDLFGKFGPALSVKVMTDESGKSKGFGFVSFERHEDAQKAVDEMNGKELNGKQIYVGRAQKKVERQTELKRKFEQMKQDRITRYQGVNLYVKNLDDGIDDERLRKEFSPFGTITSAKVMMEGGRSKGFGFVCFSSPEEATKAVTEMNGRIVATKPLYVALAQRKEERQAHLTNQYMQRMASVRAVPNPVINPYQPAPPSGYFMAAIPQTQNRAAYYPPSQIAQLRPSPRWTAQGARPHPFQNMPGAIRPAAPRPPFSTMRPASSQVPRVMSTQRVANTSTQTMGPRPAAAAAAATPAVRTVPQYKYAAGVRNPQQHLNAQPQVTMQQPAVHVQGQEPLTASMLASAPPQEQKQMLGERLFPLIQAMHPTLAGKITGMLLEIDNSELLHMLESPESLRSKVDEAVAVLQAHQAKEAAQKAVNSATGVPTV
For assay [5], the target named is T1, Polyadenylate-binding protein 1. Briefly: MLLE domain peptide-binding blockers, IC50 – biochemical, fluorescence polarization, FITC-PAM2 peptide, dose response (AID 602259). It counts as functional. As to conditions: read-out: IC50_Mean. For orientation: Polarisation of emitted light reports the rotation of a fluorescent probe.
Assay [6] is described as follows: NIH-3T3 fibroblast cytotoxicity, dose response, cytotoxicity control, cell-based, fluorescence, Alamar Blue, secondary assay (AID 2327).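 Also: NIH-3T3 mouse fibroblasts cultured with fluconazole at 8 µg/mL.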 It counts as functional. In general terms: Alamar Blue is a resazurin reagent that responds to reducing activity.
Assay [7] can be described thus: fluconazole-exposed Candida albicans growth modulators – fluorescence, retest, confirmation (AID 2467). It counts as functional, cell-based.
A short description of another assay: cells. The format is functional.
Assay [8] concerns Streptococcus sp. 'group A'. Briefly: Streptococcus pyogenes SK(-)GAS viability under kanamycin – luminescence, BacTiterGlo, confirmation, counter-screen for streptokinase expression inhibitor project, dose response (AID 1900). It counts as functional, organism-based.
In a further assay the target is T2, Streptokinase A (Streptococcus pyogenes serotype M1, UniProt P10520).
T2 sequence (P10520 whole entry): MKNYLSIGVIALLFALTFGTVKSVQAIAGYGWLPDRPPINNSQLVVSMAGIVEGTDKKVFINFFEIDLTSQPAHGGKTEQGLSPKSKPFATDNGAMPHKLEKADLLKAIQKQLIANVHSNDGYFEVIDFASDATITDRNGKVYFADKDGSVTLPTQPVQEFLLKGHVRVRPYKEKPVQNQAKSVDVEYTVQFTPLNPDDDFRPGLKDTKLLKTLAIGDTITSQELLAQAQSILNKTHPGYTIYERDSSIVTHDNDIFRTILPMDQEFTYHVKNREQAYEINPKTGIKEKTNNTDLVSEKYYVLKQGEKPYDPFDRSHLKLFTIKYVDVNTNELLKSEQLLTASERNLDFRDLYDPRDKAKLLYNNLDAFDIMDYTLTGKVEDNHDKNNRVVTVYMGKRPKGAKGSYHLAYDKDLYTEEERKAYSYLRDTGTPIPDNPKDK
Briefly: viability-normalized secreted streptokinase activity reduction – plasminogen activation absorbance, OD405, dose response (AID 1914).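 Also: secreted streptokinase activity via plasminogen activation per viability signal from cell pellet.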 It counts as functional, Streptococcus pyogenes M1 GAS.

A further assay concerns Streptococcus. In words: GAS UMAA2166 growth inhibition – luminescence, BacTiterGlo, counter-screen for streptokinase expression inhibitor project, dose response (AID 1915).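 Also: potency for reduction of bacterial viability or growth.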 It counts as functional, organism-based.
Assay [9] in a line: reduction of Shn3 3'UTR-driven luciferase in osteoblasts – cell-based, Clone20 osteoblasts, firefly luciferase, cherry-picked, dose response (AID 624132).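 Also: firefly luciferase luminescence from reporter carrying the Shn3 3'UTR in osteoblasts.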 It counts as functional.
The nature of assay [10]: loss of viability in HepG2 cells – cell-based, CellTiter-Glo, cherry-picked, cytotoxicity control for Shn3 inhibitor project, dose response (AID 624134). It counts as functional.
Assay [11] can be described thus: non-specific 3'UTR reporter inhibition in Clone20-Shn3RL – cell-based, Renilla luciferase, cherry-picked, counter-screen for Shn3 inhibitor project, dose response (AID 624133). The format is functional.
Assay [12] in a line: viability of PTEN-deleted HCT116 cells – cell-based, HCT116 PTEN knockout, dose response (AID 1047).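 Also: HCT116 colon tumor cells with PTEN knocked out; cells exposed to compound for 60 hours before readout; potency for loss of cell viability measured by luminescence.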 It counts as functional.
Assay [13] can be described thus: viability of HCT116 lacking mutant beta-catenin – cell-based, human colon tumor, dose response (AID 1045).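 Also: HCT116 colon tumor cells with beta catenin knocked out; cells exposed to compound for 60 hours.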 The format is functional.
In another assay the test system is INS1. In words: INS-1E survival protection against cytokine death – cell-based, luminescence, retest, dose response (AID 449756).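 Also: cell death triggered by IL-1 beta plus TNF-alpha plus IFN-gamma mixture; protective hits raise ATP signal compared with cytokine alone wells.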 The format is functional. As to conditions: Rattus norvegicus.
The target of assay [14] is T3, RNA-binding protein pos-1 (Caenorhabditis elegans, UniProt G5EF15).
T3 sequence (G5EF15 whole entry): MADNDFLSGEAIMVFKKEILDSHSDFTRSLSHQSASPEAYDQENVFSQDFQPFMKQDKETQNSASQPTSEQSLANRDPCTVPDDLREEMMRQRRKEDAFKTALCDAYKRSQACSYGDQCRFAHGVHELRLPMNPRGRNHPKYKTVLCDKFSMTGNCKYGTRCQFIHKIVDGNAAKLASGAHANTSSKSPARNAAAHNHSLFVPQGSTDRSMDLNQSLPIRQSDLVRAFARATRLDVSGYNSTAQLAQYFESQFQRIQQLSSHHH
Briefly: disruptors of C. elegans POS-1 RNA interaction – biochemical, fluorescence polarization, dose response (AID 1964).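 Also: purified POS-1 fused to maltose binding protein made in E. coli; potency of compounds blocking POS-1 binding to fluorescent RNA.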

In assay [15] the target is T4, Zinc finger protein mex-5 (Caenorhabditis elegans, UniProt Q9XUB2).
T4 sequence (Q9XUB2 whole entry): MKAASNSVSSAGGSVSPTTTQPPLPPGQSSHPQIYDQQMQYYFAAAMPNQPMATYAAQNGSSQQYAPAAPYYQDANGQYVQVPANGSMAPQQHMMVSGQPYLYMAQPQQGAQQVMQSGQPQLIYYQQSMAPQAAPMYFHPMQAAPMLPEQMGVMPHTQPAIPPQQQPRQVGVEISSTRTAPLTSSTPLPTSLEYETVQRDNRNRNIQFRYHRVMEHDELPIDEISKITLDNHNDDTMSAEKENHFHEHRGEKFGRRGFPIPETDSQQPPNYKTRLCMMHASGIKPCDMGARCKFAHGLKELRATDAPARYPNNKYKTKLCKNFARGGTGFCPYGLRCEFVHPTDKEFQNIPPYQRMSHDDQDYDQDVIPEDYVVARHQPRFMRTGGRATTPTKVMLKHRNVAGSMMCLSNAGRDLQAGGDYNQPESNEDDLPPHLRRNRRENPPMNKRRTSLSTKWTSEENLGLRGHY
In words: potency of MEX-5 RNA-binding blockers – biochemical, C. elegans, fluorescence polarization, dose response (AID 1960).

Assay [16] is described as follows: Luminescence Cell-Based Dose Retest to Confirm Inhibitors of Cancer Stem Cells. [Related pubchem assays (depositor defined):AID2717, AID2721]. The format is functional. The following applies: Homo sapiens.
In another assay the target is Cytochrome P450 3A4 (Homo sapiens, UniProt P08684).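 Also: CYP3A4 tested as one member of a cytochrome P450 panel screen.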
Chain of Cytochrome P450 3A4 (P08684 whole entry): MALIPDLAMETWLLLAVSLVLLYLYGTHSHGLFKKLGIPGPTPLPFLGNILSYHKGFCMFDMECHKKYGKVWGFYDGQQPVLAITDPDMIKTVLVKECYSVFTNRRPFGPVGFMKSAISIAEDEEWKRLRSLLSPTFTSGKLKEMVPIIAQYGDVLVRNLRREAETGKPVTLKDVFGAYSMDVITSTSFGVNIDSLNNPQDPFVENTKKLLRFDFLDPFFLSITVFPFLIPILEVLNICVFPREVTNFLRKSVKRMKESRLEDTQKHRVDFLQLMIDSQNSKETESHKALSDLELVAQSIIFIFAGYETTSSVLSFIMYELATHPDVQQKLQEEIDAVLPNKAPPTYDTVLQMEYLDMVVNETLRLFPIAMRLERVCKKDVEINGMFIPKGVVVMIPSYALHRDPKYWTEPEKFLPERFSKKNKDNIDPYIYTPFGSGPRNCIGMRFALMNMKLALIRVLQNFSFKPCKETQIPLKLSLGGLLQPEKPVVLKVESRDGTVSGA
The next assay has as its target Paired box protein Pax-8 (Homo sapiens, UniProt Q06710). Briefly: PAX8 transcriptional activity inhibition in RMG-I – RMG-I cells, luciferase, cherry-pick, dose response (AID 687027).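 Also: luciferase reporter driven by Pax8 target thyroperoxidase promoter measured by SteadyGlo luminescence.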 The format is functional, cell-based.

Molecules are shown by their SMILES. Active and inactive are the calls of the source. Bounds are passed on as bounds.

Chain of Paired box protein Pax-8 (Q06710 whole entry): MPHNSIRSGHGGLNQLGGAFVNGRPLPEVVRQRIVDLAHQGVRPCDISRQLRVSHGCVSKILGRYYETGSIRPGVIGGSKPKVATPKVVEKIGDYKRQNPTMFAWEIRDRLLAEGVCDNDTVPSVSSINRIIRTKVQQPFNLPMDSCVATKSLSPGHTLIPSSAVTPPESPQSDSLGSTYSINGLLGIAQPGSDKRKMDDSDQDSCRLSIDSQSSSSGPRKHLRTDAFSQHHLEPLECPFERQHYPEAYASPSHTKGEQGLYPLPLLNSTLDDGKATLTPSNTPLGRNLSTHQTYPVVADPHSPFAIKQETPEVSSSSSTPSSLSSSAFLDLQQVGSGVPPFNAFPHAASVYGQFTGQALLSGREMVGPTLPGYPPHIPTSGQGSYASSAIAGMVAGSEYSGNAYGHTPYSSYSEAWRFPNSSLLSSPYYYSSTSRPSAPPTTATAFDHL

A word on the EC50: it is the concentration giving half of the maximal effect. For `CCc1ccc(Oc2coc3cc(OCC(=O)Nc4cc(C)ccc4C)ccc3c2=O)cc1`, the figures for the EC50 in [1], in [2] and in assay [3] were 18.5 µM (active), 14.8 µM (active) and 9.97 µM (active), respectively.
Turning to `O=[N+]([O-])c1cccc(C(=S)N2CCN(c3ccc(F)cc3)CC2)c1`, the IC50 in assay [4] and in assay [5] was > 66 µM (inactive) in each case.
For `O=C(O)CCCCCN1C(=O)/C(=C\c2ccncc2)SC1=S`, the EC50 was 6.7 µM (inconclusive) in [6] and 1.45 µM (active) in assay [7]. Moreover, the IC50 in “cells” is 23.6 µM (active).
For `COc1ccc2cc3c(N)nn(C(=O)C4CCC(C(C)(C)C)CC4)c3nc2c1` (centres undefined), the EC50 is 51.1 µM (active) in assay [1]; 2.15 µM (active) in assay [8]; 9.82 µM (active) in [2]; 12.3 µM (active) in assay [3]; > 150 µM (not active) on Streptokinase A; 4.71 µM (active) in the assay on Streptococcus.
The AC50 is the midpoint of the concentration-response curve, whichever way the signal moves. Consider `Cc1nn(Cc2ccc(Cl)cc2)c(C)c1NC(=O)c1cc(C(C)C)on1`, for which the figures for the AC50 in assay [9], in assay [10] and in assay [11] were 6.2 µM (active), 67 µM (active) and 9.1 µM (active), respectively.
Consider `O=C(Nc1nnc(-c2cccs2)o1)c1cccc(F)c1`, for which the EC50 is > 160 µM (inactive) in assay [6], 1.25 µM (active) in assay [7], 10.5 µM (active) in assay [12] and 8.96 µM (active) in assay [13].
With `S=C(NCCCCN(Cc1ccc(Cl)cc1)c1ccc(Br)cn1)NCCCc1cnc[nH]1`, the AC50 was 7.24 µM (active) in assay [9], 19.5 µM (active) in [10] and 39.3 µM (active) in [11].
For `CCCNC(=O)c1ccc2c(O)c(O)c(-c3ccc(Cl)c([N+](=O)[O-])c3)nc2c1`, the EC50 in assay [6] was > 150 µM (inactive); in assay [7], 2.18 µM (active). Besides, the AC50 in the assay on INS1 is 5.06 µM (active).
On to `COc1ccc(C)cc1N(C(=O)c1ccccc1F)c1nc2ccccc2s1`, for which the EC50 in [1], in [2] and in assay [3] was > 120 µM (not active) throughout.
As for `Cn1c(C(=O)NC2CCCCCC2)cc2c(=O)n(C)c3ccccc3c21`, the values for the EC50 in [12] and in [13] were 24.4 µM (active) and 21.1 µM (active), respectively.
For `Cn1c(COc2ccc(Br)cc2)nnc1SC1CCc2ccccc2C1=O` (centres undefined), the AC50 is 35.2 µM (active) in assay [9], 58.9 µM (active) in [10] and 12.5 µM (active) in assay [11].
Take `Cc1c(Cc2ccccc2)sc(NC(=O)/C=C/c2cccc3ccccc23)c1C(N)=O`: the results for the EC50 in [1], in [2] and in assay [3] were 13.3 µM (inconclusive), 10.9 µM (active) and 5.84 µM (active), respectively.
Consider `COc1cc(C(CC(=O)N2CCCC2)c2c(OC)cc(OC)c3ccc(=O)oc23)cc(OC)c1OC` (centres undefined), for which the EC50 was 8.14 µM (inconclusive) in [14] and 16.2 µM (active) in assay [15]. For the same molecule, the IC50 is > 66 µM (inactive) in [4] and 60.3 µM (inactive) in assay [5].
`CC(C)C1=C2CCCCC2NC(=O)N1` (centres undefined): the IC50 in [4] and in assay [5] was > 66 µM (inactive) throughout.
`CCCOc1nc2c(c(=O)n(C)c(=O)n2C)n1Cc1cccc2ccccc12`: the EC50 in assay [12] is 49 µM (active); in [13], 27.1 µM (active). Moreover, in the assay on INS1, the AC50 was 6.39 µM (active).
Take `N#CCSc1nnc(CNc2ccc(F)cc2)o1`: the IC50 in assay [4] and in assay [5] was > 66 µM (inactive) in each case.
`O=C(O)c1cccc(NC(=S)NC(=O)c2ccncc2)c1`: the IC50 in assay [4] and in [5] was > 66 µM (inactive) each time.
Take `C=CCNC(=S)NS(=O)(=O)c1cccs1`: the IC50 in [4] and in [5] was > 66 µM (inactive) in each case.
In the case of `O=C(NC(=S)Nc1ccc(S(=O)(=O)N2CCCC2)cc1)c1cccs1`, the IC50 in assay [4] and in [5] was > 66 µM (inactive) throughout.
Regarding `CCOC(=O)C1(Cc2cccc(OC)c2)CCN(C/C=C/c2ccc(OC)cc2)CC1`, the figures for the AC50 in assay [9], in assay [10] and in [11] were 4.75 µM (active), 51.6 µM (active) and 5.59 µM (active), respectively.
For `Cc1ccc(Cl)cc1NC(=O)c1ccccc1OCC(=O)Nc1ccc(Cl)cc1`, the EC50 in [12] is 8.82 µM (active); in assay [13] it was 10.9 µM (active). Besides, in [16], the AC50 was 10.6 µM (inconclusive).
With `Cc1cccc(NC(=S)NC(=O)c2cccs2)n1`, the IC50 in [4] and in assay [5] was > 66 µM (inactive) throughout. Moreover, at Cytochrome P450 3A4, the AC50 was 28.2 µM (inconclusive).
Consider `Cc1oc(-c2ccc(Cl)cc2)nc1CN1CCCC(C(=O)N2CCN(C(=O)c3ccco3)CC2)C1` (centres undefined), for which the EC50 is 26 µM (active) in [12] and 17.3 µM (active) in assay [13].
In the case of `O=C(Nc1nnc(COc2ccc(F)cc2)s1)c1ccco1`, the figures for the EC50 in assay [6] and in assay [7] were > 160 µM (inactive) and 3.15 µM (active), respectively.
As for `COC(=O)C1=C(c2ccc(F)cc2OCc2ccccc2)C[C@@H]2CC[C@H]1N2C(=O)NCc1ccc(C(F)(F)F)cc1`, the concentration at half-maximal activity (AC50) in [9] is 9.14 µM (active); in assay [10], > 70 µM (inactive); in [11], 7.19 µM (active); on Paired box protein Pax-8, 10.9 µM (active).
Turning to `COc1ccccc1CNc1nc(NCc2ccccc2SC)c2sccc2n1`, the values for the AC50 in [9], in [10] and in assay [11] were 4.48 µM (active), 21.1 µM (active) and 5.2 µM (active), respectively.
For the molecule `Cc1nn(-c2ccccc2)c(C)c1/C=N/NC(=O)CSc1nc2ccccc2c(=O)n1-c1ccc(Br)cc1`, the figures for the EC50 in [12] and in [13] were 7.38 µM (active) and 7.27 µM (active), respectively.
Regarding `Cc1cc(O)c(/C=N/Nc2ccc(Cl)cc2)c(=O)o1`, the EC50 in assay [6] was 29.8 µM (active); in assay [7], 0.273 µM (active).
With `O=C(N/N=C/c1cc([N+](=O)[O-])ccc1O)C1C2CCCCC21` (centres undefined), the values for the EC50 in assay [6] and in assay [7] were > 150 µM (inactive) and 2.35 µM (active), respectively.
As for `COc1cccc(/N=c2\oc3c(C)ncc(CO)c3cc2C(=O)Nc2ccccc2OC)c1`, the EC50 in assay [1], in assay [2] and in [3] was > 120 µM (not active) each time.
